In patent publication US20230085307A1, “PYRIDAZINONE COMPOUND AND HERBICIDE” (NISSAN CHEMICAL CORPORATION, priority 2019, published 2023):

Key:
barnyard grass [1] = assay: Test Example 3: herbicidal effect by foliage application, Wagner pot (Table 18, symbol H); type: in vivo, barnyard grass (Echinochloa crus-galli); settings: 320 g/ha
Summary of the method: (§1)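 Plants were sown in alluvial soil held under 0.1–0.5 cm standing water and grown 14 days in a greenhouse at 25–30 °C. An emulsifiable formulation, water-diluted to the set dose, was then sprayed onto the foliage, and effects were scored three weeks later using previously defined criteria.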

Chinese sprangletop = assay: Test Example 3: herbicidal effect by foliage application, Wagner pot (Table 18, symbol D); type: in vivo, chinese sprangletop (Leptochloa chinensis); settings: 320 g/ha
Summary of the method: as §1

rice flat sedge = assay: Test Example 3: herbicidal effect by foliage application, Wagner pot (Table 18, symbol E); type: in vivo, rice flat sedge (Cyperus iria); settings: 320 g/ha
Summary of the method: as §1

directly sowed rice = assay: Test Example 3: effect on crop by foliage application, Wagner pot (Table 18, symbol b); type: in vivo; settings: 320 g/ha
Summary of the method: as §1

southern crabgrass [2] = assay: Test Example 4: herbicidal effect by soil treatment (Table 19, symbol F); type: in vivo, southern crabgrass (Digitaria ciliaris); settings: amount of applied herbicide 320 g/ha
Summary of the method: (§2)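 Step 1: sow seeds in sterilized diluvial soil, cover ~1.5 cm. Step 2: spray diluted emulsion onto soil surface at predetermined rate. Step 3: greenhouse, 25–30° C, three weeks. Step 4: grade effect on each plant by earlier criteria.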

green foxtail [3] = assay: Test Example 4: herbicidal effect by soil treatment (Table 19, symbol G); type: in vivo, green foxtail (Setaria viridis); settings: amount of applied herbicide 320 g/ha
Summary of the method: as §2

barnyard grass [4] = assay: Test Example 4: herbicidal effect by soil treatment (Table 19, symbol H); type: in vivo, barnyard grass (Echinochloa crus-galli); settings: amount of applied herbicide 320 g/ha
Summary of the method: as §2

wild oat [5] = assay: Test Example 4: herbicidal effect by soil treatment (Table 19, symbol I); type: in vivo, wild oat (Avena fatua); settings: amount of applied herbicide 320 g/ha
Summary of the method: as §2

blackgrass [6] = assay: Test Example 4: herbicidal effect by soil treatment (Table 19, symbol J); type: in vivo, blackgrass (Alopecurus myosuroides); settings: amount of applied herbicide 320 g/ha
Summary of the method: as §2

Italian ryegrass [7] = assay: Test Example 4: herbicidal effect by soil treatment (Table 19, symbol K); type: in vivo, Italian ryegrass (Lolium multiflorum); settings: amount of applied herbicide 320 g/ha
Summary of the method: as §2

windgrass [8] = assay: Test Example 4: herbicidal effect by soil treatment (Table 19, symbol L); type: in vivo, windgrass (Apera spica-venti); settings: amount of applied herbicide 320 g/ha
Summary of the method: as §2

velvetleaf [9] = assay: Test Example 4: herbicidal effect by soil treatment (Table 19, symbol M); type: in vivo, velvetleaf (Abutilon theophrasti); settings: amount of applied herbicide 320 g/ha
Summary of the method: as §2

redroot pigweed [10] = assay: Test Example 4: herbicidal effect by soil treatment (Table 19, symbol N); type: in vivo, redroot pigweed (Amaranthus retroflexus); settings: amount of applied herbicide 320 g/ha
Summary of the method: as §2

lambsquarters [11] = assay: Test Example 4: herbicidal effect by soil treatment (Table 19, symbol O); type: in vivo, lambsquarters (Chenopodium album); settings: amount of applied herbicide 320 g/ha
Summary of the method: as §2

chickweed [12] = assay: Test Example 4: herbicidal effect by soil treatment (Table 19, symbol P); type: in vivo, common chickweed (Stellaria media); settings: amount of applied herbicide 320 g/ha
Summary of the method: as §2

persian speedwell [13] = assay: Test Example 4: herbicidal effect by soil treatment (Table 19, symbol R); type: in vivo, Persian speedwell (Veronica persica); settings: amount of applied herbicide 320 g/ha
Summary of the method: as §2

corn [14] = assay: Test Example 4: effect on crop by soil treatment (Table 19, symbol c); type: in vivo; settings: amount of applied herbicide 320 g/ha
Summary of the method: as §2

soybean [15] = assay: Test Example 4: effect on crop by soil treatment (Table 19, symbol d); type: in vivo; settings: amount of applied herbicide 320 g/ha
Summary of the method: as §2

wheat [16] = assay: Test Example 4: effect on crop by soil treatment (Table 19, symbol e); type: in vivo; settings: amount of applied herbicide 320 g/ha
Summary of the method: as §2

beet [17] = assay: Test Example 4: effect on crop by soil treatment (Table 19, symbol f); type: in vivo; settings: amount of applied herbicide 320 g/ha
Summary of the method: as §2

rapeseed [18] = assay: Test Example 4: effect on crop by soil treatment (Table 19, symbol g); type: in vivo; settings: amount of applied herbicide 320 g/ha
Summary of the method: as §2

southern crabgrass [19] = assay: Test Example 5: herbicidal effect by foliage application, plastic box (Table 20, symbol F); type: in vivo, southern crabgrass (Digitaria ciliaris); settings: foliage application, 320 g/ha, three weeks after application
Summary of the method: (§3)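 Foliar spray test: emulsion formulation diluted in water to a set application rate, sprayed onto 14-day-old plants raised in diluvial soil at 25° C to 30° C under glass. Both herbicidal effect and crop effect rated visually three weeks later.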

green foxtail [20] = assay: Test Example 5: herbicidal effect by foliage application, plastic box (Table 20, symbol G); type: in vivo, green foxtail (Setaria viridis); settings: foliage application, 320 g/ha, three weeks after application
Summary of the method: as §3

barnyard grass [21] = assay: Test Example 5: herbicidal effect by foliage application, plastic box (Table 20, symbol H); type: in vivo, barnyard grass (Echinochloa crus-galli); settings: foliage application, 320 g/ha, three weeks after application
Summary of the method: as §3

wild oat [22] = assay: Test Example 5: herbicidal effect by foliage application, plastic box (Table 20, symbol I); type: in vivo, wild oat (Avena fatua); settings: foliage application, 320 g/ha, three weeks after application
Summary of the method: as §3

blackgrass [23] = assay: Test Example 5: herbicidal effect by foliage application, plastic box (Table 20, symbol J); type: in vivo, blackgrass (Alopecurus myosuroides); settings: foliage application, 320 g/ha, three weeks after application
Summary of the method: as §3

Italian ryegrass [24] = assay: Test Example 5: herbicidal effect by foliage application, plastic box (Table 20, symbol K); type: in vivo, Italian ryegrass (Lolium multiflorum); settings: foliage application, 320 g/ha, three weeks after application
Summary of the method: as §3

windgrass [25] = assay: Test Example 5: herbicidal effect by foliage application, plastic box (Table 20, symbol L); type: in vivo, windgrass (Apera spica-venti); settings: foliage application, 320 g/ha, three weeks after application
Summary of the method: as §3

velvetleaf [26] = assay: Test Example 5: herbicidal effect by foliage application, plastic box (Table 20, symbol M); type: in vivo, velvetleaf (Abutilon theophrasti); settings: foliage application, 320 g/ha, three weeks after application
Summary of the method: as §3

redroot pigweed [27] = assay: Test Example 5: herbicidal effect by foliage application, plastic box (Table 20, symbol N); type: in vivo, redroot pigweed (Amaranthus retroflexus); settings: foliage application, 320 g/ha, three weeks after application
Summary of the method: as §3

lambsquarters [28] = assay: Test Example 5: herbicidal effect by foliage application, plastic box (Table 20, symbol O); type: in vivo, lambsquarters (Chenopodium album); settings: foliage application, 320 g/ha, three weeks after application
Summary of the method: as §3

chickweed [29] = assay: Test Example 5: herbicidal effect by foliage application, plastic box (Table 20, symbol P); type: in vivo, common chickweed (Stellaria media); settings: foliage application, 320 g/ha, three weeks after application
Summary of the method: as §3

persian speedwell [30] = assay: Test Example 5: herbicidal effect by foliage application, plastic box (Table 20, symbol R); type: in vivo, Persian speedwell (Veronica persica); settings: foliage application, 320 g/ha, three weeks after application
Summary of the method: as §3

corn [31] = assay: Test Example 5: effect on crop by foliage application, plastic box (Table 20, symbol c); type: in vivo; settings: 320 g/ha, three weeks after application
Summary of the method: as §3

soybean [32] = assay: Test Example 5: effect on crop by foliage application, plastic box (Table 20, symbol d); type: in vivo; settings: 320 g/ha, three weeks after application
From the text: (§4) [Test Example 5] Herbicidal Effect Test by Foliage Application
(§5) Sterilized diluvial soil was placed in a plastic box having a length of 21 cm, a width of 13 cm, and a depth of 7 cm. The seeds of each of southern crabgrass, green foxtail, barnyard grass, wild oat, blackgrass, Italian ryegrass, windgrass, velvetleaf, redroot pigweed, lambsquarters, chickweed, false cleavers, persian speedwell, corn, soybean, rice, wheat, beet, and rapeseed were sowed in a spot-like manner and covered with the soil having a thickness of about 1.5 cm. Thereafter, the plants were grown in a greenhouse at 25° C. to 30° C. After 14-day growth of the plants, the emulsion agent of the compound of the present invention prepared according to Formulation Example 2 was diluted with water so as to achieve a predetermined herbicide amount, and the diluted emulsion agent was uniformly applied to a foliage part with a small-sized spray. Three weeks after the herbicide application, the effect of the herbicide on each plant was evaluated according to the criteria of Test Example 1.

wheat [33] = assay: Test Example 5: effect on crop by foliage application, plastic box (Table 20, symbol e); type: in vivo; settings: 320 g/ha, three weeks after application
Summary of the method: as §3

beet [34] = assay: Test Example 5: effect on crop by foliage application, plastic box (Table 20, symbol f); type: in vivo; settings: 320 g/ha, three weeks after application
From the text: as §4, §5

rapeseed [35] = assay: Test Example 5: effect on crop by foliage application, plastic box (Table 20, symbol g); type: in vivo; settings: 320 g/ha, three weeks after application
Summary of the method: as §3

melting point: 286 to 288 °C
Structure (SMILES): COc1ccc2c(-c3c(O)c(N)nn(C)c3=O)c(-c3ccccc3OC)sc2c1 [Compound No. 3-087, 6-amino-5-hydroxy-4-(6-methoxy-2-(2-methoxyphenyl)benzo[b]thiophen-3-yl)-2-methyl pyridazin-3(2H)-one]
herbicidal effect on barnyard grass (H) (barnyard grass [1]): 4 (Herbicidal rate of 70% or more and less than 90%)
herbicidal effect on Chinese sprangletop (D) (Chinese sprangletop): 0 (Herbicidal rate of 5% or less (almost no effect))
herbicidal effect on rice flat sedge (E) (rice flat sedge): 3 (Herbicidal rate of 40% or more and less than 70%)
effect on directly sowed rice (b) (directly sowed rice): 1 (Herbicidal rate of 5% or more and less than 20%)
F: southern crabgrass, herbicidal effect grade (southern crabgrass [2]): 0 (Herbicidal rate of 5% or less (almost no effect))
G: green foxtail, herbicidal effect grade (green foxtail [3]): 0 (Herbicidal rate of 5% or less (almost no effect))
H: barnyard grass, herbicidal effect grade (barnyard grass [4]): 0 (Herbicidal rate of 5% or less (almost no effect))
I: wild oat, herbicidal effect grade (wild oat [5]): 0 (Herbicidal rate of 5% or less (almost no effect))
J: blackgrass, herbicidal effect grade (blackgrass [6]): 0 (Herbicidal rate of 5% or less (almost no effect))
K: Italian ryegrass, herbicidal effect grade (Italian ryegrass [7]): 0 (Herbicidal rate of 5% or less (almost no effect))
L: windgrass, herbicidal effect grade (windgrass [8]): 0 (Herbicidal rate of 5% or less (almost no effect))
M: velvetleaf, herbicidal effect grade (velvetleaf [9]): 0 (Herbicidal rate of 5% or less (almost no effect))
N: redroot pigweed, herbicidal effect grade (redroot pigweed [10]): 0 (Herbicidal rate of 5% or less (almost no effect))
O: lambsquarters, herbicidal effect grade (lambsquarters [11]): 0 (Herbicidal rate of 5% or less (almost no effect))
P: chickweed, herbicidal effect grade (chickweed [12]): 3 (Herbicidal rate of 40% or more and less than 70%)
R: persian speedwell, herbicidal effect grade (persian speedwell [13]): 3 (Herbicidal rate of 40% or more and less than 70%)
c: corn, effect on crop grade (corn [14]): 0 (Herbicidal rate of 5% or less (almost no effect))
d: soybean, effect on crop grade (soybean [15]): 0 (Herbicidal rate of 5% or less (almost no effect))
e: wheat, effect on crop grade (wheat [16]): 0 (Herbicidal rate of 5% or less (almost no effect))
f: beet, effect on crop grade (beet [17]): 0 (Herbicidal rate of 5% or less (almost no effect))
g: rapeseed, effect on crop grade (rapeseed [18]): 0 (Herbicidal rate of 5% or less (almost no effect))
F: southern crabgrass, herbicidal effect grade (southern crabgrass [19]): 0 (Herbicidal rate of 5% or less (almost no effect))
G: green foxtail, herbicidal effect grade (green foxtail [20]): 0 (Herbicidal rate of 5% or less (almost no effect))
H: barnyard grass, herbicidal effect grade (barnyard grass [21]): 3 (Herbicidal rate of 40% or more and less than 70%)
I: wild oat, herbicidal effect grade (wild oat [22]): 0 (Herbicidal rate of 5% or less (almost no effect))
J: blackgrass, herbicidal effect grade (blackgrass [23]): 4 (Herbicidal rate of 70% or more and less than 90%)
K: Italian ryegrass, herbicidal effect grade (Italian ryegrass [24]): 1 (Herbicidal rate of 5% or more and less than 20%)
L: windgrass, herbicidal effect grade (windgrass [25]): 5 (Herbicidal rate of 90% or more (almost completely withered))
M: velvetleaf, herbicidal effect grade (velvetleaf [26]): 0 (Herbicidal rate of 5% or less (almost no effect))
N: redroot pigweed, herbicidal effect grade (redroot pigweed [27]): 1 (Herbicidal rate of 5% or more and less than 20%)
O: lambsquarters, herbicidal effect grade (lambsquarters [28]): 0 (Herbicidal rate of 5% or less (almost no effect))
P: chickweed, herbicidal effect grade (chickweed [29]): 5 (Herbicidal rate of 90% or more (almost completely withered))
R: persian speedwell, herbicidal effect grade (persian speedwell [30]): 4 (Herbicidal rate of 70% or more and less than 90%)
c: corn, effect on crop grade (corn [31]): 0 (Herbicidal rate of 5% or less (almost no effect))
d: soybean, effect on crop grade (soybean [32]): 0 (Herbicidal rate of 5% or less (almost no effect))
e: wheat, effect on crop grade (wheat [33]): 0 (Herbicidal rate of 5% or less (almost no effect))
f: beet, effect on crop grade (beet [34]): 4 (Herbicidal rate of 70% or more and less than 90%)
g: rapeseed, effect on crop grade (rapeseed [35]): 4 (Herbicidal rate of 70% or more and less than 90%)
